Here are results for 22 compounds from patent US20070048355A1, “Non-irritating solvent-borne polymeric coatings for application to the skin” (priority 2005, published 2007).

For this data set, the system named is freshly abraided skin on a finger knuckle. The data set can be described thus: standard sting test on abraded finger knuckle skin. It counts as in vivo, human. The conditions noted are these: for stinging of aliphatic hydrocarbon diluent solvents (in words): neat alkane on abraded skin. The source says: The preparations described above were applied to skin that had been carefully abraided shortly before testing to determine whether the stinging and discomfort caused by collodion application could be suppressed by one or more of these agents. The procedure used was to manually scour a finger knuckle using 100 grit garnet sandpaper just to the point of slight bleeding, and then allowing the skin to rest a minute or so until any discomfort, i.e., sensation of irritation, pain or heat, had disappeared prior to challenging the abrasion with a potential chemical irritant. The resultant stinging sensation was compared to that produced with the unmodified commercial New Skin™ collodion product (the “control”). Sting (also termed and described as “burning sensation”) was rated on a five level scale as follows: (−) no sting, (+/−) barely detectable sting, (+) slight sting, (++) moderate sting, (+++) strong sting. […] This method of testing and scoring the level or magnitude of the stinging sensation is referred to herein as the “sting test” or “standard sting test.”
Using the “standard sting test” described above, and similarly abraded skin on a finger knuckle, individual collodion ingredients were tested neat (undiluted). Accordingly, a droplet or two of the mixture or the chemical ingredient was placed on freshly abraided skin.
Several new chemicals and solvents of potential interest were tested, and others that were formerly tested (all in their neat state) were re-tested using the standard sting test procedure and accompanying scoring system described above. Applicant's strategy behind this testing was to find a true solvent or alternatively, a combination of true solvent and either co-solvent or diluent, that would have sufficient volatility to allow rapid drying of a collodion coating without causing stinging when applied to the skin.

Setting [1] is: additional testing and re-testing of chemicals and solvents in their neat state, standard sting test.
The mark [2] stands for this setting: individual collodion ingredients tested neat (undiluted), a droplet or two on freshly abraided skin.

As to `CC(C)=O` [Acetone], under setting [1], the “LEVEL OF STING” value is “+++”.

For the compound `CCCCCOC(C)=O` [Amyl Acetate (mixed isomers), Amyl Acetate], the “LEVEL OF STING” value is, setting by setting: under setting [1], “+/−”; under setting [2], “+/−”.

As for `CCOC(C)=O` [Ethyl Acetate], the “LEVEL OF STING” value (in vivo) is reported as “+++”.

As for `CCO` [Ethyl Alcohol], the “LEVEL OF STING” value under setting [1] is “+++” and the “LEVEL OF STING” value under setting [2] was “+++”.

On to `CC(C)O` [Isopropyl Alcohol], for which the “LEVEL OF STING” value reads like this: under setting [1], “++”; under setting [2], “++”.

On to `CC(=O)OC(C)C` [Isopropyl acetate], for which the “LEVEL OF STING” value under setting [1] is recorded as “+”.

`COC(C)=O` [Methyl acetate]: the “LEVEL OF STING” value under setting [1] is “+++”.

As for `CO` [Methyl alcohol], under setting [1], the “LEVEL OF STING” value is on record as “+++”.

On to `CCC(C)=O` [Methyl ethyl ketone], for which the “LEVEL OF STING” value under setting [1] is reported as “+++”.

`CC(CO)CO` [Methyl propanediol]: the “LEVEL OF STING” value under setting [1] is “+”.

For `CCCC(C)=O` [Methyl propyl ketone], under setting [1], the “LEVEL OF STING” value is given as “++”.

Consider `CC(C)CO` [isobutyl alcohol], for which the “LEVEL OF STING” value under setting [1] was “+”.

In the case of `CCCCOC(C)=O` [n-Butyl Acetate], the “LEVEL OF STING” value is “+/−” under setting [1] and “+/−” under setting [2].

With `CCCCCCC` [n-Heptane], the “stinging of aliphatic hydrocarbon diluent solvents (in words)” value (shortened to “stinging”) was “none of the aliphatic hydrocarbon diluent solvents that were tested caused any stinging”. Further, the “LEVEL OF STING” value under setting [1] is listed as “−”.

For `CCCCCC` [n-Hexane], the “stinging” value was “none of the aliphatic hydrocarbon diluent solvents that were tested caused any stinging”. The “LEVEL OF STING” value under setting [1] is listed as “−”.

For the compound `CCCCCCCC` [n-Octane], the “stinging” value is reported as “none of the aliphatic hydrocarbon diluent solvents that were tested caused any stinging”. The “LEVEL OF STING” value under setting [1] is on record as “−”.

With `CCCOC(C)=O` [n-Propyl acetate], the “LEVEL OF STING” value under setting [1] is “+”.

Regarding `CCCCCO` [n-amyl alcohol], the “LEVEL OF STING” value under setting [1] is “+”.

Take `CCCCC` [n-pentane]: the “stinging” value is “none of the aliphatic hydrocarbon diluent solvents that were tested caused any stinging”.

For `CC(=O)OC(C)(C)C` [tert-Butyl acetate], the “LEVEL OF STING” value under setting [1] is “+/−”.

In the case of Castor Oil, the “LEVEL OF STING” value (in vivo) is reported as “−”.

“Isohexane (e.g., 2-methyl pentane and other isomers)”: the “LEVEL OF STING” value under setting [1] is “−”.
